Experimental data published in publication PMC10363080, “Modulatory Effect of Pyrus pyrifolia Fruit and its Phenolics on Key Enzymes against Metabolic Syndrome: Bioassay-Guided Approach, HPLC Analysis, and In Silico Study” (Plant Foods for Human Nutrition (Dordrecht, Netherlands), 2023).
Like-named read-outs stand apart in the source and are kept apart here.

Key:
[1] = target: T1, porcine pancreatic lipase (Sus scrofa, UniProt P00591); experiment: Pancreatic lipase inhibitory activity; assay type: biochemical; conditions: isolated compounds, Table S7; read-out: Inhibition (IC50) Lipase
T1 construct: purchased Abnova
T1 sequence (P00591 1-450): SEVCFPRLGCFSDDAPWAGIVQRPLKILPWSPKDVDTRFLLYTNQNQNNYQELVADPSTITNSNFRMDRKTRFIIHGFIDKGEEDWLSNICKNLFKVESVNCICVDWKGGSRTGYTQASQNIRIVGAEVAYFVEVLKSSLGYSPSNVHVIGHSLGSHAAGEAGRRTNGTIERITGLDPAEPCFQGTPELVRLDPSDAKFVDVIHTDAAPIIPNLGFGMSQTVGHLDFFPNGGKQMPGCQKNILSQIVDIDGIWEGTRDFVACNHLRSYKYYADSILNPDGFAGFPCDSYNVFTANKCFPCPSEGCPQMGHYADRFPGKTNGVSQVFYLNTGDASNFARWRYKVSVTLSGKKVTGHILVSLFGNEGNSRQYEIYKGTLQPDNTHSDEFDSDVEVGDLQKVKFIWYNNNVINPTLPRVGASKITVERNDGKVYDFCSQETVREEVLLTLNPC
Procedure: (§1) Phenolic acids and flavonoids used in HPLC analysis as well as all other reagents for biological investigations were obtained from Sigma Chemical Company […]
(§2) Inhibitory activity against key enzymes related to metabolic syndrome (MS) All assays were performed in 96-well plates. Stock solutions of the extract (100 mg/mL), fractions (100 mg/mL), and isolated compounds (1000 µM) were prepared. Tested samples that exceeded […]
(§3) inhibitory concentration (IC50). The percentage of enzyme inhibition was calculated according to […]
(§4) % Inhibition = (A−B) − (C−D) x 100 […]
Pancreatic lipase inhibitory activity
The pancreatic lipase inhibitory activity was assessed using p-nitrophenyl dodecanoate (p-NPD) as substrate and porcine pancreatic lipase (Abnova, Taipei, Taiwan) which was described […]
previously. […] The tested samples were diluted in DMSO were incubated with 10 g L−1 PL (diluted in 0.05 mol L−1 Tris-HCl buffer pH 8.0, containing […]
in 0.5% TritonX 100) (m v−1) was added to initiate the reaction. The absorbances were measured

[2] = target: T2, inducible nitric oxide synthase (iNOS) (Mus musculus, UniProt P29477); experiment: iNOS inhibitory activity in LPS-induced RAW264.7 macrophages (nitrite, Griess reagent); assay type: cell-based; conditions: isolated compounds, Table S7, RAW264.7 cells, read-out: Inhibition (IC50) iNOS (converted)
T2 construct: endogenous in cells; host or cells: RAW264.7 mouse macrophages, LPS-induced
T2 sequence (P29477 1-1144): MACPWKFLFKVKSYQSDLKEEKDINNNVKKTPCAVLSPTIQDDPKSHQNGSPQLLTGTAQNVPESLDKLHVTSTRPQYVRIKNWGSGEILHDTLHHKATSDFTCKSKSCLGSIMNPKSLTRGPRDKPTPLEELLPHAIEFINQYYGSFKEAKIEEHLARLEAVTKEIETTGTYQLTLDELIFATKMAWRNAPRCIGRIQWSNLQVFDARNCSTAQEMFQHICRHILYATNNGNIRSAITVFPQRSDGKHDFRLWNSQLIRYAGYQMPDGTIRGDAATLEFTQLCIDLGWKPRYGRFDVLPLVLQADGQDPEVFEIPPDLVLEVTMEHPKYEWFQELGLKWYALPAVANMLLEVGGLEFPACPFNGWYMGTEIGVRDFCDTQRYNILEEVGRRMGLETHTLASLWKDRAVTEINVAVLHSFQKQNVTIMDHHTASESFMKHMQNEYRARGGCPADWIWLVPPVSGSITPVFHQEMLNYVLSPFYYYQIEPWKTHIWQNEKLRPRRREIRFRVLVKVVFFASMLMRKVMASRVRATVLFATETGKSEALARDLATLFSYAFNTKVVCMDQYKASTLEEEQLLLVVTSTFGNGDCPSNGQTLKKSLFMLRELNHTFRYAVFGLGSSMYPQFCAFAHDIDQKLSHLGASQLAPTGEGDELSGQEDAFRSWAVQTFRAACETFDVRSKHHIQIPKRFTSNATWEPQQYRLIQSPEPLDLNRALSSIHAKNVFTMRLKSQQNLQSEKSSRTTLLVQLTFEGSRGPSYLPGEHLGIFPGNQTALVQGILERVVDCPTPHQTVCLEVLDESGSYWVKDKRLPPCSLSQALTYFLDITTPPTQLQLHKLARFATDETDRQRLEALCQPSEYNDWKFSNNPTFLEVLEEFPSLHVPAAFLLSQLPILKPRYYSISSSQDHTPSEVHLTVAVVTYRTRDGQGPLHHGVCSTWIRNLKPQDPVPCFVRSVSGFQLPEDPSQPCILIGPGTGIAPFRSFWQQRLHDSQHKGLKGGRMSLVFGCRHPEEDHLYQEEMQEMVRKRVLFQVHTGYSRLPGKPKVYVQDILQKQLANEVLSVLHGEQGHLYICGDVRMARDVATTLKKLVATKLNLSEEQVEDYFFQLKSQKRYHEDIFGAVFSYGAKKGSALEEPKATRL
Procedure: as §1, §2, §3, §4
Inducible nitric oxide synthase (iNOS) inhibitory activity iNOS inhibitory activity was determined in mouse macrophage cells (RAW264.7, Shanghai BOGO Industrial Co., Ltd., China) according to a previously designed method. Phenol red-free RPMI medium from Thermo-Fisher was used to develop macrophages. It was supplemented with 10% bovine calf serum, 100 U/mL of penicillin G sodium from Sigma-Aldrich, and 100 µg/mL of streptomycin (Sigma-Aldrich). Cells (50,000/well) were seeded onto 96-well plates, which were […]

α-glucosidase = target: T3, α-glucosidase (Saccharomyces cerevisiae, UniProt P53341); experiment: biochemical; conditions: isolated compounds, Table S7
T3 construct: purchased Sigma
Procedure: as §1, §2, §3
% Inhibition = (A−B) − (C−D) x 100
A is the activity of the enzyme without tested samples, B is the control of A with neither tested samples nor enzyme, C, and D denote the activity of the test solutions with and without the tested […]
α-Glucosidase inhibitory activity
α-Glucosidase inhibition assays were performed according to a previously described method.
The tested samples were mixed with glutathione, α-glucosidase solution (Saccharomyces cerevisiae, EC 3.2.1.20, Sigma) in phosphate buffer , and the chromogenic substrate p-nitrophenyl-D-glucopyranoside (pNPG). Tested samples (50 μL) were incubated with α-glucosidase (100 μL.
0.6 U mL−1) in the presence of phosphate buffer (0.1 M, pH 6.9) for 10 min at 37 °C. Fifty μL of […] pNPG in phosphate buffer (pH 6.9) was added, and the mixture was incubated again for 12 min at 37 °C. Enzyme activity was evaluated by measuring ρ-nitrophenol release from the ρNPG […]
Absorbance at 405 nm was measured. […]

[3] = Inhibition (IC50) α-Glucosidase

T3 sequence (P53341 whole entry): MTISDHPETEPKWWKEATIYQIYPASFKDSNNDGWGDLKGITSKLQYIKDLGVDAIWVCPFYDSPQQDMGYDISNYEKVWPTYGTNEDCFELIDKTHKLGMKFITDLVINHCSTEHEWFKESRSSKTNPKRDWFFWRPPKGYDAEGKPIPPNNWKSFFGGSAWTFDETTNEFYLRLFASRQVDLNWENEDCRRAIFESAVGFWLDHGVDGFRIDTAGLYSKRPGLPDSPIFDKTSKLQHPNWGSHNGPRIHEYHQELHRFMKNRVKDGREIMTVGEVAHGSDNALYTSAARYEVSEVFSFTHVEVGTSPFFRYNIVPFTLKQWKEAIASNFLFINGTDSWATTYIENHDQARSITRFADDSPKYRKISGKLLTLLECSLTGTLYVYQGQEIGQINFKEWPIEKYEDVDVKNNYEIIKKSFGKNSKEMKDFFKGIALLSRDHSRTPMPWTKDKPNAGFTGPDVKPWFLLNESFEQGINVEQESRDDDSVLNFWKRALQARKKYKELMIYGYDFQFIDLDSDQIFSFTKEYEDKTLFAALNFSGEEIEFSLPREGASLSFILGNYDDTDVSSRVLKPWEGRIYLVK

Row | Compound | IC50 [1] [nM] | IC50 [2] [nM] | IC50 (α-glucosidase; read-out: Inhibition (IC50) α-Glucosidase) [nM] | IC50 (α-glucosidase; [3]) [nM]
1 | COc1cc(-c2oc3cc(O)cc(O)c3c(=O)c2O[C@@H]2O[C@H](CO)[C@@H](O)[C@H](O)[C@H]2O)ccc1O [P3, isorhamnetin-3-O-β-D-glucopyranoside] | 780 ± 750 | 4890 ± 780 | 1370 ± 860 | –
2 | C[C@@H]1O[C@@H](OC[C@H]2O[C@@H](Oc3c(-c4ccc(O)c(O)c4)oc4cc(O)cc(O)c4c3=O)[C@H](O)[C@@H](O)[C@@H]2O)[C@H](O)[C@H](O)[C@H]1O [P1, rutin] | 980 ± 670 | 4990 ± 1940 | – | –
3 | O=C(O)/C=C/c1ccccc1 [P6, cinnamic acid] | 350 ± 520 | 4760 ± 250 | – | 750
4 | O=C(/C=C/c1ccc(O)c(O)c1)O[C@@H]1C[C@](O)(C(=O)O)C[C@@H](O)[C@H]1O [P4, chlorogenic acid] | 1310 ± 290 | 4790 ± 890 | – | –
5 | O=c1c(O[C@@H]2O[C@H](CO)[C@@H](O)[C@H](O)[C@H]2O)c(-c2ccc(O)c(O)c2)oc2cc(O)cc(O)c12 [P2, isoquercitrin] | 570 ± 30 | 4800 ± 990 | – | 1120 ± 380
